Data published in ChEMBL document CHEMBL4052696, “Varic acid analogues from fungus as PTP1B inhibitors: Biological evaluation and structure-activity relationships” (Bioorg Med Chem Lett, 2017).
Active and inactive are the calls of the source.

Columns and labels:
Rattus norvegicus [1] = experiment: Increase in insulin-induced glucose lowering effect in normal Wistar rat at 10 mg/kg, ip dosed 30 mins before insulin injection and measured 30 mins post insulin injection by glucose-oxidase assay; format: functional, organism-based
[2] = target: T1, Tyrosine-protein phosphatase non-receptor type 1 (Homo sapiens) (UniProt P18031); experiment: Reversible inhibition of PTP1B (unknown origin) at 0.1 to 0.4 uM using p-nitrophenyl phosphate substrate incubated for 30 mins by Lineweaver-Burk double reciprocal plot
T1 sequence (whole entry): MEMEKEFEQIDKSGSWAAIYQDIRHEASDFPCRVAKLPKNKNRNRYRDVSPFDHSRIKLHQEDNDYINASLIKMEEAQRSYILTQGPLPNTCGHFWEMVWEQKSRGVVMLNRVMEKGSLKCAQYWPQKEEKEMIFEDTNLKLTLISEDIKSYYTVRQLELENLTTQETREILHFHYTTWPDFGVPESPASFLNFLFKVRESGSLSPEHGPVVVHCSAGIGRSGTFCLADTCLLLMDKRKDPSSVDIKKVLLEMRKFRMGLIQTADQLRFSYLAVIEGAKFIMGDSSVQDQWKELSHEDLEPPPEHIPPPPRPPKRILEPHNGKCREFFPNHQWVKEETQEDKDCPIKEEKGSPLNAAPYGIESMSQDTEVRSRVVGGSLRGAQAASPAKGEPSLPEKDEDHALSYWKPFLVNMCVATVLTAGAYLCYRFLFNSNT

Rattus norvegicus [3] = experiment: Increase in insulin-induced glucose lowering effect in type 2 diabetic Wistar rat at 10 mg/kg, ip dosed 30 mins before insulin injection and measured 30 mins post insulin injection by glucose-oxidase assay; format: functional, organism-based

CCCc1cc(OC(=O)c2c(O)cc(OC(=O)c3c(O)cc(O)cc3CCC)cc2CCC)cc(O)c1C(=O)O
active: Activity (Rattus norvegicus [1]) | inhibition [2] | Activity (Rattus norvegicus [3])
